Values of other authors as cited in patent US9474689B2, “Delamination resistant pharmaceutical glass containers containing active pharmaceutical ingredients” (Corning Incorporated, priority 2011, dated 2016).

Key:
Enterobacteriaceae = conditions: in vitro
P. aeruginosa = conditions: against P. aeruginosa
[1] = tested on: soluble and transmembrane forms of TNFα
TNFβ (lymphotoxin-α) = target: T1, TNFβ (lymphotoxin-α) (Homo sapiens, UniProt P01374)
T1 sequence (P01374 35-205): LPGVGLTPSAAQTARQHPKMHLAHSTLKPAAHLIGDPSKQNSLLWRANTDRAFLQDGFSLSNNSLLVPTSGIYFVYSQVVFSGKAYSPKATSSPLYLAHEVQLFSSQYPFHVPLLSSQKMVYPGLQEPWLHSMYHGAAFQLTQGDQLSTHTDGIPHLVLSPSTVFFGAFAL

Chain of soluble and transmembrane forms of TNFα (P01375 77-233 limits assumed): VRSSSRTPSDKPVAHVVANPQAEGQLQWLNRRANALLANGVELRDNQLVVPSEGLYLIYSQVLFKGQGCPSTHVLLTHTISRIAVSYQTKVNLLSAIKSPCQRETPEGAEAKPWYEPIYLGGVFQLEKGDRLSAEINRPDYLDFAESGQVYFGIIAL

Compound: C[C@@H](O)[C@H]1C(=O)N2C(C(=O)O)=C(S[C@@H]3CN[C@H](CNS(N)(=O)=O)C3)[C@H](C)[C@H]12 [Doripenem, doripenem]
- protein binding: low protein binding
- activity against Enterobacteriaceae (Enterobacteriaceae): excellent activity
- post-antibiotic effects in vitro (P. aeruginosa): about two hours

Compound: Infliximab: chimeric IgG1κ monoclonal antibody specific for human tumor necrosis factor-alpha
- binding affinity to TNFα [1]: high affinity
- neutralization of TNFβ (TNFβ (lymphotoxin-α)): does not neutralize
